# Experimental data taken from paper PMC6941357, “An in vitro toolbox to accelerate anti-malarial drug discovery and development” (Malaria Journal, 2020).
# Where “and” joins values, the source holds several entries; their conditions need not be identical. Identical values can stand only once.
# Legend:
# [1] = Solubility in biorelevant media; details: for solubility at 1 h / Solubility PBS7.4 (5–6 h) / Solubility FaSSGF (1 h) / Solubility FaSSIF-V2 (5–6 h) / Solubility FeSSIF-V2 (5–6 h): 37 °C; for solubility at 1 h: fassgf or other biorelevant; for solubility at 1 h / solubility: thermodynamic from solid
# Method: Solubility of each active pharmaceutical ingredient was evaluated at 37 °C in pH 7.4 phosphate buffered saline (prepared as described for the partitioning experiments), fasted (FaSSIF-V2) and fed (FeSSIF-V2) state simulated intestinal fluids and fasted state simulated gastric fluid (FaSSGF) as described by Jantratid et al.. […] Samples were vortexed and placed in a 37 °C incubator on an orbital mixer (IKA® VXR basic Vibrax® orbital mixer) set at 600 rpm. Sampling times were 1 h for FaSSGF or 5–6 h for FaSSIF-V2, FeSSIF-V2, and PBS. These times were used to reflect the maximal likely residence times within the stomach and small intestine, respectively. Sampling was carried out by centrifuging each sample at 10,000 rpm for 3 min, transferring 300 µL aliquots into fresh Eppendorf tubes and centrifuging these tubes again at 10,000 rpm for 3 min. Triplicate aliquots of the supernatant were then removed and diluted 1:2 in 50% aqueous methanol and then again in 50% aqueous acetonitrile to be within the analytical concentration range. Samples were analysed by LC–MS along with calibration standards (Additional file 1: Table S2).
# [2] = Solubility limited absorbable dose (SLAD) calculation with predicted human jejunal Peff; details: for solubility: FaSSIF; for An (absorption number): Peff × tres/R, minimum 1; for Permeability classification: based on ref 80 and control compounds; for Predicted human Peff: from Caco-2 Papp via calibration plot; for Ssi (estimated solubility in the small intestine): based on measured FaSSIF solubility
# Source text: Predicted Peff values were obtained from a calibration plot of literature Peff values vs measured Caco-2 Papp using either buffer or plasma as the transport medium (see Results section).
# [3] = In vitro metabolism (metabolic stability) in human liver microsomes; details: human, liver microsomes, pH 7.4, HLM CLint, human liver microsomes; average of n = 2 replicates; < 7 means < 15% loss over 60 min
# In short: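 Compound depletion in human liver microsomes was followed by LC–MS at 2–60 min, with cofactor-free controls. First-order depletion rate constants gave in vitro CLint (µL/min/mg protein), corrected to unbound CLint using measured microsomal fu.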
# CYP1A2 = molecular target: T1, CYP1A2 (Homo sapiens, UniProt P05177); experiment: Cytochrome P450 inhibition in human liver microsomes
# T1 sequence (P05177 1-516): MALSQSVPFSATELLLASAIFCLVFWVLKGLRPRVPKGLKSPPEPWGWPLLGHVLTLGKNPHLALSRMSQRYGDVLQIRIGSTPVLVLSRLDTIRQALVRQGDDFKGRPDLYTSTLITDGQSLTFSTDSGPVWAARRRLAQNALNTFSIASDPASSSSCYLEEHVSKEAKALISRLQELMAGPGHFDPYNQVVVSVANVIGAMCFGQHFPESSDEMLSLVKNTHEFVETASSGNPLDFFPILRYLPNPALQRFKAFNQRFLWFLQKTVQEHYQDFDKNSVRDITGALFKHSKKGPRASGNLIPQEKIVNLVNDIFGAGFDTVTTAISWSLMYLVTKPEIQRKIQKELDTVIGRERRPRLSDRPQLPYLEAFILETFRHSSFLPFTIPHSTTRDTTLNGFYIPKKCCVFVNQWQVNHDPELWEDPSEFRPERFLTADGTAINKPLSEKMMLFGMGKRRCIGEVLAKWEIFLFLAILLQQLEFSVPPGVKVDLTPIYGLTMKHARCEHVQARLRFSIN
# Method: (§1) The CYP inhibition assay was based on a previous publication with minor modifications. The method uses human liver microsomes and a substrate-specific interaction approach which relies on the formation of a metabolite that is mediated by a specific CYP isoform. The specific CYP-mediated metabolic pathways, substrates, substrate Km values, positive control inhibitors and specific incubation conditions are shown in Additional file 1: Table S4. […] Samples were quenched by the addition of ice-cold acetonitrile containing diazepam as the analytical internal standard. Concentrations of the substrate-specific metabolites in quenched samples were determined by LC–MS (Additional file 1: Table S5) relative to calibration standards prepared in quenched microsomal matrix.
# (§2) The inhibitory effect of each test compound and positive control inhibitor was based on the reduction in the formation of the specific CYP-mediated metabolite (represented as percent inhibition of enzyme activity) relative to metabolite formation in the absence of inhibitor (i.e. control for maximal enzyme activity). […] The Km was determined under the same incubation conditions by measuring the rate of metabolite formation (pmol/min/mg protein) as a function of substrate concentration (Additional file 1: Table S4).
# CYP2C19 = CYP2C19 (Homo sapiens, UniProt P33261); experiment: as above
# Chain of CYP2C19 (P33261 whole entry): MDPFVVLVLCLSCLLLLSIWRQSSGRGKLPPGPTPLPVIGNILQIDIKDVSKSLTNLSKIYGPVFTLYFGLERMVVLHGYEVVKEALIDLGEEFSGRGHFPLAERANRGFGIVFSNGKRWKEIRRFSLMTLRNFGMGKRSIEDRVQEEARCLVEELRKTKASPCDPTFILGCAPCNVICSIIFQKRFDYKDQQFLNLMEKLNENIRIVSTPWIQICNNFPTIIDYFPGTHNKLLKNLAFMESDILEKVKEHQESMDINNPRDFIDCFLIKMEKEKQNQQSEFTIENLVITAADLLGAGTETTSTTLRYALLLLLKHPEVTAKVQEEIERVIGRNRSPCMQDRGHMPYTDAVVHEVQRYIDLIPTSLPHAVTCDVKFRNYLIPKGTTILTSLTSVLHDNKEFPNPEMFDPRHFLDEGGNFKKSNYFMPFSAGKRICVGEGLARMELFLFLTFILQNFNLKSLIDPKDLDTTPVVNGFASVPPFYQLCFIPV
# Method: as §1, §2
# CYP2C9 = CYP2C9 (Homo sapiens, UniProt P11712); experiment: as above
# Chain of CYP2C9 (P11712 whole entry): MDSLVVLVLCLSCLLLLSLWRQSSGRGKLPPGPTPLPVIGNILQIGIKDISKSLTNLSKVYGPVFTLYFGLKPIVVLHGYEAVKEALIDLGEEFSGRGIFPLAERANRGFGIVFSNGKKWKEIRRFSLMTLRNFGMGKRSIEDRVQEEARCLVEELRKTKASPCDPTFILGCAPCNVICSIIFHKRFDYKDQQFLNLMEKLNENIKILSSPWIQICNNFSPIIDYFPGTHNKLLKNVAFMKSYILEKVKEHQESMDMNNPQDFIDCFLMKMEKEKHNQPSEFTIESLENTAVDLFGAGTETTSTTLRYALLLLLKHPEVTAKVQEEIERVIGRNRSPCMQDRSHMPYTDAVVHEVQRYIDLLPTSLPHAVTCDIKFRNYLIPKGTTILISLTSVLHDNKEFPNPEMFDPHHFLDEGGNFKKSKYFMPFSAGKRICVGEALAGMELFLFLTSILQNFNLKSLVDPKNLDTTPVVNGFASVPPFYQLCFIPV
# Method: as §1, §2
# CYP2D6 = CYP2D6 (Homo sapiens, UniProt P10635); experiment: as above
# Chain of CYP2D6 (P10635 whole entry): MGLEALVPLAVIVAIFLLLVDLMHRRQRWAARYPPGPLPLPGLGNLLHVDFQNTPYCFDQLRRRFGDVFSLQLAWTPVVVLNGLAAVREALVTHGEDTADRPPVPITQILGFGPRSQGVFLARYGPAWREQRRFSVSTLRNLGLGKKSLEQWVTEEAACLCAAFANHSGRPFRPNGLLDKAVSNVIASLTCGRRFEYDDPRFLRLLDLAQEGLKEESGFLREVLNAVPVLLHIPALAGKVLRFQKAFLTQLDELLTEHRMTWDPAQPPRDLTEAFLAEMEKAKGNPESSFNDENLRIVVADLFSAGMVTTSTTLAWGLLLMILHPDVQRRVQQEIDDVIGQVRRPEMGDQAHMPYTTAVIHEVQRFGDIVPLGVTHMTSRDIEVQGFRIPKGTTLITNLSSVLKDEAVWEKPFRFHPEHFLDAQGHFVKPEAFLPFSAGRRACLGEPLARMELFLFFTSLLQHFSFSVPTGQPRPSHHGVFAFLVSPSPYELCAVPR
# Method: as §1, §2
# CYP3A4 = CYP3A4 (Homo sapiens, UniProt P08684); experiment: in vitro
# Chain of CYP3A4 (P08684 whole entry): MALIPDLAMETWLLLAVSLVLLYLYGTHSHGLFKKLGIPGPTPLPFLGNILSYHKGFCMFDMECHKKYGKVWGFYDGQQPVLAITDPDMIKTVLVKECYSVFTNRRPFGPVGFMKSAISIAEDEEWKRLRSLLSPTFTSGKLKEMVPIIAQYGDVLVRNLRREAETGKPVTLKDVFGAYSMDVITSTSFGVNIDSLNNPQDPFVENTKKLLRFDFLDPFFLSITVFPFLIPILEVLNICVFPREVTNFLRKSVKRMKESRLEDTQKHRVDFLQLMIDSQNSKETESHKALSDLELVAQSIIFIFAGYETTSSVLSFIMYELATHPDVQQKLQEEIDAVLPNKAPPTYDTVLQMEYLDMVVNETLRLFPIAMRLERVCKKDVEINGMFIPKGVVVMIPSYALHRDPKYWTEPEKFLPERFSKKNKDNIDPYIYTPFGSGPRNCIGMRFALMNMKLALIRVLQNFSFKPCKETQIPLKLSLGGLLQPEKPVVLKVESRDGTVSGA
# Method: as §1, §2
# [4] = molecular target: T2, Albumax medium (lipid rich bovine serum albumin) (Bos taurus, UniProt P02769); experiment: Binding in Albumax medium via ultracentrifugation; assay type: in vitro ADME
# T2 construct: purchased Gibco, Thermo Fisher Scientific
# T2 sequence (P02769 25-607): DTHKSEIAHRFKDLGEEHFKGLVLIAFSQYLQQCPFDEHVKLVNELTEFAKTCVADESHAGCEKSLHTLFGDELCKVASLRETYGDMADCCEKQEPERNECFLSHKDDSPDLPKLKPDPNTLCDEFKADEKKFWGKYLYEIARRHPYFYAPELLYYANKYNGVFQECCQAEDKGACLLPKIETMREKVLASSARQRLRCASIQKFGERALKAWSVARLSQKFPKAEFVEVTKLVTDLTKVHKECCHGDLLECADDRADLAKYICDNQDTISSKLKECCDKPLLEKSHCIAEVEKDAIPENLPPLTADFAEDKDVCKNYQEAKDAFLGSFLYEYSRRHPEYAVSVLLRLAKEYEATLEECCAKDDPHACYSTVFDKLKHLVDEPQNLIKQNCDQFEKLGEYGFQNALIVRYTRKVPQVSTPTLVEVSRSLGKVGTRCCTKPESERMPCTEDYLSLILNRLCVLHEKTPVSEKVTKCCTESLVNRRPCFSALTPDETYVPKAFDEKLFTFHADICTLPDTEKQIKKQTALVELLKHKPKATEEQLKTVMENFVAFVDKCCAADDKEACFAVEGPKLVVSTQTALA
# Method: An ultracentrifugation method adapted from a previous publication was initially used to assess plasma protein binding and binding in the other media. […] Additional ultracentrifuge tubes containing spiked matrix were maintained at 37 °C, 5% or 10% CO2 or normal atmosphere conditions, with aliquots being taken within 0.5 h of the start and at the end of ultracentrifugation to serve as controls for the assessment of stability and to obtain a measure of the total concentration (Ctotal). Following ultracentrifugation, the pH was checked and an aliquot of protein-free supernate was taken from each ultracentrifuge tube for determination of the unbound concentration (Cunbound).
# Total matrix and protein free samples were analysed using a matrix matching approach whereby each sample was mixed in a 1:1 ratio with the opposite blank medium (i.e. blank total matrix or blank protein free buffer). For example, plasma samples were mixed with blank pH 7.4 buffer whereas plasma supernatant samples were mixed with blank plasma. Each of the sample sets were then assayed against a common calibration curve prepared in a 1:1 mixture of total matrix and protein free pH 7.4 buffer. […] The standard deviation for fu was calculated using the propagation of errors approach as described previously. The potential for compound degradation was assessed by comparing the average value for Ctotal at the start and end of the experiment.
# [5] = phosphate buffered saline pH 7.4, 37 °C, pH 7.4, aqueous buffer
# [6] = CYP3A4 (midaz) IC50, human liver microsomes, CYP3A4 (midaz), highest concentration tested 20 µM
# [7] = CYP3A4 (test) IC50, human liver microsomes, CYP3A4 (test), highest concentration tested 20 µM
Structure (SMILES),solubility at 1 h ([1]; FaSSGF),"solubility ([1]; FaSSIF-V2, 37 °C, fassif)","solubility ([1]; FeSSIF-V2, 37 °C, fessif)",An (absorption number) [2],SLAD ([2]; Ssi × V (500 mL) × Mp) [mg],Permeability classification [2],Predicted human Peff [2],microsomal CLint at 1 µM [3] [µL/min/mg],IC50 (CYP1A2) [µM],CYP1A2 % inhibition at max conc (CYP1A2; microsomes),IC50 (CYP2C19) [µM],CYP2C19 % inhibition at max conc (CYP2C19; microsomes),IC50 (CYP2C9) [µM],IC50 (CYP2D6) [µM],CYP3A4 (midaz) % inhibition at max conc (CYP3A4; microsomes),CYP3A4 (test) % inhibition at max conc (CYP3A4; microsomes),Solubility PBS7.4 (5–6 h) [1],SLAD [2] [mg],Ssi (estimated solubility in the small intestine) [2] [mg/mL],"solubility [1, 5]",further results
O=C1C(O)=C([C@H]2CC[C@H](c3ccc(Cl)cc3)CC2)C(=O)c2ccccc21 [Atovaquone],0.26 µg/mL and 0.71 µM,1.83 µg/mL and 4.99 µM,6.41 µg/mL and 17.5 µM,13,12,High (> 85% absorption (high)),11 10^−4 cm/s,< 7,> 20,nmi,> 20,nmi,> 20,> 20,nmi,nmi,,,,< 0.05 µg/mL and < 0.1 µM,"solubility [2]: 0.00183 mg/mL; inhibition at 20 µM (CYP2C9; human, microsomes, pH 7.4): 26%; CYP2D6 % inhibition at max conc (CYP2D6; microsomes): nmi"
Cc1cc(Nc2ccc(S(F)(F)(F)(F)F)cc2)n2nc(C(C)(F)F)nc2n1 [DSM265],,,,5.7,14,High (> 85% absorption (high)),4.8 10^−4 cm/s,,,,,,,,,,,,,2.04 µg/mL and 4.9 µM,
CCCCN(CCCC)CC(O)c1cc(Cl)cc2c1-c1ccc(Cl)cc1/C2=C/c1ccc(Cl)cc1 (centres unmarked) [Lumefantrine],12.6 µg/mL and 23.8 µM,0.063 µg/mL and 0.119 µM,14.4 µg/mL and 27.2 µM,,,,,< 7,> 20,nmi,> 20,nmi,> 20,2.9,nmi,nmi,,,,< 0.05 µg/mL and < 0.1 µM,CYP2C9 % inhibition at max conc (CYP2C9; microsomes): nmi; Ki (CYP2D6): 1.8 µM; IC50 (CYP3A4; [6]): > 20 µM; IC50 (CYP3A4; [7]): > 20 µM
COc1cc(N[C@H](C)CCCN)c2nccc(C)c2c1Oc1ccc(Cl)c(Cl)c1 [NPC1161B],,,,,,,,,,,,,,,37%,,5.44 µg/mL and 12.5 µM,,,,"Solubility FaSSGF (1 h) [1]: 1520 µg/mL and 3500 µM; Solubility FaSSIF-V2 (5–6 h) [1]: 19.9 µg/mL and 45.8 µM; Solubility FeSSIF-V2 (5–6 h) [1]: > 2000 µg/mL and > 4600 µM; Fraction unbound, Albumax [4]: 0.035 ± 0.0020; IC50 (CYP1A2; microsomes): 6.5 µM; Ki (CYP1A2; microsomes): 3.8 µM; IC50 (CYP2C19; microsomes): 9.6 µM; Ki (CYP2C19; microsomes): 5.7 µM; CYP2C9 % inhibition at max conc (CYP2C9; microsomes): 37%; IC50 (CYP2C9; microsomes): > 20 µM; CYP2D6 % inhibition at max conc (CYP2D6; microsomes): 39%; IC50 (CYP2D6; microsomes): > 20 µM; Ki (CYP3A4; microsomes): 8.2 µM"
CS(=O)(=O)O.FC1CCN(CCOc2ccc(C3CCC4(CC3)OOC3(OO4)C4CC5CC(C4)CC3C5)cc2)CC1 (centres unmarked) [TDD-E209],,,,13,,High (> 85% absorption (high)),11 10^−4 cm/s,,,,,,,,,,0.056 µg/mL and 0.112 µM,579,0.087,,"Solubility FaSSGF (1 h) [1]: 211 µg/mL and 421 µM; Solubility FaSSIF-V2 (5–6 h) [1]: 87.2 µg/mL and 174 µM; Solubility FeSSIF-V2 (5–6 h) [1]: > 2000 µg/mL and > 4000 µM; Fraction unbound, Albumax [4]: 0.0070 ± 0.0010"

# Now from value to compound, other results behind:
solubility at 1 h ([1]; FaSSGF),"solubility ([1]; FaSSIF-V2, 37 °C, fassif)","solubility ([1]; FeSSIF-V2, 37 °C, fessif)",An (absorption number) [2],SLAD ([2]; Ssi × V (500 mL) × Mp) [mg],Permeability classification [2],Predicted human Peff [2],microsomal CLint at 1 µM [3] [µL/min/mg],IC50 (CYP1A2) [µM],CYP1A2 % inhibition at max conc (CYP1A2; microsomes),IC50 (CYP2C19) [µM],CYP2C19 % inhibition at max conc (CYP2C19; microsomes),IC50 (CYP2C9) [µM],IC50 (CYP2D6) [µM],CYP3A4 (midaz) % inhibition at max conc (CYP3A4; microsomes),CYP3A4 (test) % inhibition at max conc (CYP3A4; microsomes),Solubility PBS7.4 (5–6 h) [1],SLAD [2] [mg],Ssi (estimated solubility in the small intestine) [2] [mg/mL],Structure (SMILES),"solubility [1, 5]",further results
,,,3.9,,High (> 85% absorption (high)),3.3 10^−4 cm/s,,,,,,,,,,85.5 µg/mL and 239 µM,182,0.093,Cc1cc(Nc2ccc(C(F)(F)F)nc2)n2nc(C(C)(F)F)nc2n1 [DSM421],,"Fraction unbound, Albumax [4]: 0.43 ± 0.020"
,,,13,,High (> 85% absorption (high)),11 10^−4 cm/s,,,nmi,,41%,,,,nmi,0.102 µg/mL and 0.214 µM,3,0.00052,COc1cc2[nH]c(C)c(-c3ccc(Oc4ccc(OC(F)(F)F)cc4)cc3)c(=O)c2cc1Cl [ELQ300],,Solubility FaSSGF (1 h) [1]: 0.929 µg/mL and 1.95 µM; Solubility FaSSIF-V2 (5–6 h) [1]: 0.524 µg/mL and 1.10 µM; Solubility FeSSIF-V2 (5–6 h) [1]: 0.065 µg/mL and 0.137 µM; IC50 (CYP1A2; microsomes): > 20 µM; IC50 (CYP2C19; microsomes): > 20 µM; IC50 (CYP2C9; microsomes): 7.5 µM; Ki (CYP2C9; microsomes): 5.4 µM; IC50 (CYP2D6; microsomes): 8 µM; Ki (CYP2D6; microsomes): 5 µM; IC50 (CYP3A4; microsomes): > 20 µM
> 2000 µg/mL and > 2800 µM,15.8 µg/mL and 34.1 µM,1310 µg/mL and 2820 µM,13,105,High (> 85% absorption (high)),11 10^−4 cm/s,< 7,> 20,,> 20,,14,> 20,,,,,,COc1cc(C)c2c(Oc3cccc(C(F)(F)F)c3)c(OC)cc(NC(C)CCCN)c2n1 (centres unmarked) [Tafenoquine],18.3 µg/mL and 39.5 µM,"FaSSGF solubility ([1]; FaSSGF): > 2 mg/mL; solubility [2]: 0.0158 mg/mL; inhibition at 20 µM (CYP1A2; human, microsomes, pH 7.4): 20%; inhibition at 20 µM (CYP2C19; human, microsomes, pH 7.4): 42%; Ki (CYP2C9): 10 µM; inhibition at 20 µM (CYP2D6; human, microsomes, pH 7.4): 35%; IC50 (CYP3A4; [6]): > 20 µM; IC50 (CYP3A4; [7]): 3.8 µM; Ki (CYP3A4; CYP3A4 (test) Ki, human liver microsomes, CYP3A4 (test)): 2.3 µM; inhibition at 20 µM (CYP3A4; human, microsomes, pH 7.4, CYP3A4 (midaz) % inhibition at max conc): 40%"
